Laboratory results reported in patent publication US11442059B2, “Method for treating a chronic itch condition by administering small molecule MrgprX4 antagonists” (The Johns Hopkins University, priority 2017, dated 2022).
Entries after “also recorded” stand apart in the source; their conditions may differ. Starred links: 1 amine or outer side, 2 acyl side, 3 side chain; linkers in the order of their positions; H or OH if unused. Positions of bridges follow the written chain, without caps; N, C: chain ends. Non-standard residues stand in square brackets, D forms with d. Residues, ends and D or L forms follow the SMILES beside them. X1 = CC(=O)NC(C(=O)OC(C(C)C)C(N[*:1])C(=O)[*:2])C(O)C(C)C; PhLac = O=C(O)[CH](O)Cc1ccccc1; NMeT = CN[CH](C(=O)O)[CH](C)O; NMeA = CN[CH](C)C(=O)O; NMeDha = C=C(NC)C(=O)O

What was measured:
mice = experiment: Acute itch behaviour after injection (scratching bouts); format: in vivo, mouse; conditions: for itch responses in WT versus Cluster KO animals: injection at nape or cheek; for scratching / itch elicited by injection: WT mice; for itch elicited in Cluster KO animals: Cluster KO mice
MrgprA1 = biological target: T1, MrgprA1 (Mus musculus, UniProt Q91WW5); experiment: Fura 2-AM calcium imaging, EC50 and IC50 determinations, MRGPRA1 HEK293 cells; format: cell-based; conditions: 10 μM pre-incubated 30 minutes; 50 μM bilirubin
T1 construct: expressed in transfected cells; whole cells or crude membrane fraction
T1 sequence (Q91WW5 1-304): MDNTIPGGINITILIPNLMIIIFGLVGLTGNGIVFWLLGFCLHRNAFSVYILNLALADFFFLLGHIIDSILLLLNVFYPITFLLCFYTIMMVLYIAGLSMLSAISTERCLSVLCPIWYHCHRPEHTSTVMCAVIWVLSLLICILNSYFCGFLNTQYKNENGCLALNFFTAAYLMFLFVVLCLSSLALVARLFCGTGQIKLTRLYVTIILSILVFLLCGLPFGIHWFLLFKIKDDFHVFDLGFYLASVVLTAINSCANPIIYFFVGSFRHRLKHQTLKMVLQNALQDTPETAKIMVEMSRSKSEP
Protocol: (§1) Cells were imaged in calcium imaging buffer (CIB; 10 mM HEPES, 1.2 mM NaHCO3, 130 mM NaCl, 3 mM KCl, 2.5 mM CaCl2, 0.6 mM MgCl2, 20 mM glucose, and 20 mM sucrose at pH 7.4 and 290-300 mOsm). To monitor changes in intracellular [Ca^2+] ([Ca^2+]i), cells were loaded with either Fura 2-AM (HEK293 cells) or Fluo 4-AM (DRG neurons and mast cells) for 30 min in the dark at 37° C. in CIB just prior to imaging. With Fura 2-AM, emission at 510 nm was monitored from excitation at both 340 nm and 380 nm. With Fluo 4-AM, emission at 520 nm was monitored from excitation at 488 nm. Cells were identified as responding if the intracellular [Ca^2+] rose by either 50% compared to baseline or 50% compared to the [Ca^2+]i change assayed during addition of 50 mM KCl (neurons only). Damaged, detached, high-baseline, and motion-activated cells were excluded from analysis.
(§2) In initial screens, HEK293 cells stably expressing the murine G-protein alpha-subunit Gα15, a unique Gα protein that non-selectively couples a large variety of GPCRs to phospholipase C^30, were plated on poly-D-lysine-coated coverslips and transiently transfected with constructs encoding the MRGRPR of interest. 12-24 h later, cells were loaded with the Fura 2-AM. Unless otherwise specified, compounds were perfused into the imaging chamber for approximately thirty seconds after a baseline period was established. Response was then monitored at 5 s intervals for an additional 60 s.
(§3) HEK293 cells stably expressing either MRGPRA1, MRGPRX4, and MRGRPC11 were seeded in poly-D-lysine-coated 96-well plates at 10,000 cells/well. Cells were loaded with Fura 2-AM, washed twice, and maintained in CIB. Haem metabolites were freshly dissolved in DMSO in dim light and then diluted into a buffer comprised of 20 mM Tris and 150 mM NaCl at pH 8.8. Potential changes in pH were evaluated prior to each experiment. EC50 values were determined from dose-responses performed in triplicate, repeated 2-4 times. To determine potential antagonism by QWF against bilirubin, cells were treated with varying doses of QWF for 1 min in CIB prior to application of agonist.

MRGPRX4 [1] = biological target: T2, MRGPRX4 (Homo sapiens, UniProt Q96LA9); experiment: Fura 2-AM calcium imaging, EC50 determinations, MRGPRX4 HEK293 cells; format: cell-based; set-up: expressed in transfected cells; whole cells or crude membrane fraction; conditions: 10 μM pre-incubated 30 minutes; 50 μM bilirubin
Protocol: as §1, §2
as §3, with “To determine potential antagonism by QWF against bilirubin, cells were treated with varying doses of QWF for 1 min in CIB prior to application of agonist.” left out

129S1/SvImJ mice = experiment: SJS/TEN mouse model (daily oral gavage of causative drug); format: in vivo; conditions: mouse, in vivo
Protocol: Eight-to-ten week old male mice were orally gavaged with either causative drugs (LTG, allopurinol, oxcarbazepine) suspended in saline or saline once daily. The dosage was based on milligrams per kilogram of animal's body weight as indicated (for example, LTG 50 mg kg^−1 body weight). Skin, eyes, and mucosa, survival, body weight, physical and gross appearances (particularly on the eyes, mucosa and skins) were monitored every day.
The animals were deeply anesthetized with pentobarbital and transcardially perfused with 20 ml 0.1 M cold PBS (pH 7.4) followed with 25 ml of cold 4% paraformaldehyde (PFA). Paw skin, eyelid, spleen, lymph nodes were dissected out. postfixed in 4% PFA for more than two hours, and cryoprotected in a 20% followed by 30% sucrose solution for 24 hours each at 4° C. Tissue samples were embedded in the optimal cutting temperature (OCT) and frozen before being serially cut into 20 μm sections and placed onto slides. Hematoxylin and eosin (H&E) staining was performed using standard procedures according to the manufacturer's instruction VITROVIEW™ H&E Stain Kit). To quantify amount of apoptotic cells, terminal deoxynucleotidyl transferase dUTP nick end labeling (TUNEL) assay, a method for detecting DNA fragmentation that results from apoptotic cells by labeling the terminal end of nucleic acids, was performed by following the protocol of Apo-BrdU DNA Fragmentation Assay Kit (Biovision). To estimate the total cell number in tissue, all nuclei were stained with propidium iodide. Digital photographs were captured under confocal fluorescent microscopy at x200 magnification (Zeiss LSM 700). The number of TUNEL-positive nuclei were counted and reported as a percentage over the number of total nuclei observed in the skin's epidermis layer.

MRGPRX4 [2] = biological target: T2, MRGPRX4; experiment: MrgprX4 inverse agonist assay (HTRF IP-One inositol phosphate); format: cell-based; set-up: expressed in transfected cells; conditions: HEK293 cells stably expressing recombinant human MrgprX4, final assay concentration typically 10 μM
Protocol: (§4) Intracellular inositol phosphate levels were determined using a 384-well homogenous time-resolved fluorescence assay (HTRF IP-One®, CisBio International, Bagnols/Ceze, France, Cat #62IPAPEJ) as described by the manufacturer's one-step protocol. Briefly, HEK293 cells stably expressing recombinant human MrgprX4 were harvested and suspended in phenol-red free OptiMEM (ThermoFisher) and plated into 384-well assay plates (Perkin Elmer, Proxiplate-Plus® Cat #6008280) at 15,000 cells/well in a volume of 10 μL/well. These cell plates were then incubated overnight at 37° C. in a humidified CO2 incubator. Test compounds were dissolved in DMSO and were further diluted in Assay Buffer (Tris.HCl 40 mM, NaCl 300 mM, LiCl 350 mM, pH 8) and added to the cells (2 μL addition, final assay concentration typically 10 μM). In this configuration, the assay can detect agonists and inverse agonists. For detection of antagonists, test compound addition was followed by addition of bilirubin (2 μL addition, final assay concentration 100 μM). Regardless of the assay format (agonist/inverse agonist vs. antagonist) plates were then incubated for 1 h, at 37° C., followed by 30 minutes at room temperature. Lysis/detection reagents (6 uL/well) were then added and plates incubated for 1 h at room temperature before reading on an HTRF compatible reader such as a Perkin Elmer EnVision® or BMG Pherastar®.

MRGPRX4 [3] = biological target: T2, MRGPRX4; experiment: MrgprX4 antagonist assay vs bilirubin (HTRF IP-One inositol phosphate); format: cell-based; set-up: expressed in transfected cells; conditions: blockade of bilirubin (100 μM) induced signal; test compound typically 10 μM
Protocol: as §4

T2 sequence (Q96LA9 whole entry): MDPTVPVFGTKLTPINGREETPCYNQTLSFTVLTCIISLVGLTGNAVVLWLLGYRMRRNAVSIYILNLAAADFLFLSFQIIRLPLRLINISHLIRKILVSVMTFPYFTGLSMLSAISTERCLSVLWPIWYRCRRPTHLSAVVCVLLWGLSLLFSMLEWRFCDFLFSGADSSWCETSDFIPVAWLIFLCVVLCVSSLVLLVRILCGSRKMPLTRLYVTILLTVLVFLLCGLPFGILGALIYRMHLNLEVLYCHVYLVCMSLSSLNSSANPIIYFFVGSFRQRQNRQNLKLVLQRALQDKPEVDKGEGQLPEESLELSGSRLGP

Compound: C[C@@H](NC(=O)[C@@H](N)Cc1ccc(O)cc1)C(=O)NCC(=O)N(C)[C@@H](Cc1ccccc1)C(=O)NCCO [DAMGO]
- itch responses in WT versus Cluster KO animals (mice): comparable itch responses

Compound: C=C1C(=O)NC(C)C(=O)N(C)C(C)C(=O)NC(C(OC(=O)C(NC(C)=O)C(O)C(C)C)C(C)C)C(=O)N(C)C(C(C)OC)C(=O)OC(C)C(NC(C)=O)C(=O)OC(Cc2ccccc2)C(=O)N1C (stereo not shown) [YM-254890] (Ac-T[PhLac][NMeDha]A[NMeA][X1][NMeT](Me); ester 1-C; configuration not given here)
- effect on bilirubin-induced calcium responses, MRGPRA1 (MrgprA1): abolished
- effect on bilirubin-induced calcium responses, MRGPRX4 (MRGPRX4 [1]): inhibited

Compound: Oc1ncnc2[nH]ncc12 [allopurinol]
- eye manifestation (129S1/SvImJ mice): can also induce eye manifestation

Compound: C=CC1=C(C)/C(=C/C2=NC(=C\c3[nH]c(/C=C4\NC(=O)C(C)=C4C=C)c(C)c3CCC(=O)O)/C(CCC(=O)O)=C2C)NC1=O [biliverdin]
- scratching / itch elicited by injection (mice): did not induce scratching

Compound: O=C(O)COCCN1CCN(C(c2ccccc2)c2ccc(Cl)cc2)CC1 (stereo not shown) [cetirizine]
- effect on bilirubin-induced scratching (mice; 30 mg/kg, i.p., thirty minutes prior to bilirubin): failed to temper scratching behavior

Compound: Cc1c(C(=O)NCc2ccccc2C(F)(F)F)ncn1Cc1ccc(Cl)cc1 [compound 1]
- Inverse Agonist Activity (MRGPRX4 [2]): ++++ (an activity of at least 3 standard deviations below baseline)
- Antagonist Activity (MRGPRX4 [3]): ++++ (a blockade of bilirubin induced signal of at least 85%)

Compound: Cc1nc(-c2ccnn2Cc2ccc(Cl)cc2)[nH]c1-c1ccccc1 [compound 2]
- Inverse Agonist Activity (MRGPRX4 [2]): ++++ (an activity of at least 3 standard deviations below baseline)
- Antagonist Activity (MRGPRX4 [3]): ++++ (a blockade of bilirubin induced signal of at least 85%)

Compound: O=C(NCc1cc2ccccc2[nH]1)c1cc(-c2ccccn2)nc2ccc(Br)cc12 [compound 3]
- Inverse Agonist Activity (MRGPRX4 [2]): +++ (an activity of from 2 standard deviations to less than 3 standard deviations below baseline)
- Antagonist Activity (MRGPRX4 [3]): ++++ (a blockade of bilirubin induced signal of at least 85%)

Compound: Nc1nc2ccccc2n1CCOc1ccccc1Cl [compound 4]
- Inverse Agonist Activity (MRGPRX4 [2]): +++ (an activity of from 2 standard deviations to less than 3 standard deviations below baseline)
- Antagonist Activity (MRGPRX4 [3]): +++ (a blockade of bilirubin induced signal of from 70% to less than 85%)

Compound: C=CC1=C(C)c2cc3[n-]c(cc4[n-]c(cc5nc(cc1n2)C(C)=C5C=C)c(C)c4CCC(=O)O)c(CCC(=O)O)c3C.O.[Fe+2] [hematin]
- itch elicited in Cluster KO animals (mice): absent
- scratching / itch elicited by injection (mice): elicited itch

Compound: CN1CC[C@]23c4c5ccc(O)c4O[C@H]2[C@@H](O)C=C[C@H]3[C@H]1C5 [morphine]
- itch responses in WT versus Cluster KO animals (mice): comparable itch responses

Compound: CCC1=C(C)C(Cc2[nH]c(Cc3[nH]c(CC4NC(=O)C(C)=C4CC)c(C)c3CCC(=O)O)c(CCC(=O)O)c2C)NC1=O (stereo not shown) [urobilinogen]
- scratching / itch elicited by injection (mice): able to stimulate scratching behavior

Compound: FMRF: an MRGPRA1 agonist
- scratching / itch elicited by injection (mice): caused itch

Compound: lysophosphatidic acid [LPA]
- itch responses in WT versus Cluster KO animals (mice): comparable itch responses

Compound: stercobilin
- itch elicited in Cluster KO animals (mice): absent
- scratching / itch elicited by injection (mice): elicited itch; also recorded: able to stimulate scratching behavior
